Test results from patent US9487557B2, “Peptides for management of lactation” (MILEUTIS LTD., priority 2012, dated 2016).

Tests used:
Assay type in all cases: in vivo
[1] = system: mammary gland of lactating dairy cows; assay: Field study of involution induction: change in somatic cell counts in milk samples after a single intramammary infusion at dry-off; details: change vs Day 0, calculated from log transformation of raw data, single intramammary infusion, peptides 4 mg in 10 ml, casein hydrolyzate 20 ml
Procedure: (§1) A filed study was performed to assess the potential of a single intramammary dose of the synthetic peptides of the invention administered at dry (i.e. at the day in which milking is ceased), to induce rapid involution.
(§2) Total of 107 dairy cows were enrolled to the study, of which 45 received treatment and 62 served as a control. All cows were dairy cows at their first or further lactation that stand the inclusion/exclusion criteria. The study was a controlled blinded case-control study.
(§3) Case subjects received one dose by intramammary infusion of a particular peptide. Controls were lactating cows that received the following products by intramammary administration:
(§4) Five groups of 9 cows (total of 36 udder quarters per group) were scheduled as case groups. Each group was treated with one out of the five (5) phosphopeptides described in Example 1 hereinabove (P241210-01-01; 03; 05; 07 and 09). The peptides were administered once via intramammary infusion of 10 ml containing 4 mg peptide.
(§5) Set one: Five groups of 9 cows (total of 36 udder quarters per group) were scheduled as a first control set. Each group was treated with one out of the five (5) dephosphorylated peptides described in Example 1 hereinabove (P241210-01-02; 04; 06; 08 and 10). The peptides were administered once via intramammary infusion of 10 ml containing 4 mg peptide.
(§6) (i) Eleven cows (total of 44 udder quarters) treated with casein hydrolyzate (20 ml) administered once via intramammary infusion of 20 ml (around 1.8 mg/ml casein phosphopeptide (CPP), total=36 mg CPP for 20 ml)
(§7) All treatments (peptides, casein hydrolyzate and saline) were administered at the time point scheduled for cessation of milking (dry off). The day of administration was set as Day 0.
(§8) Sets of aseptic milk samples were collected in two separate vials once a day in the milking facility after the morning milking, on Day 0 and in post-treatment days 1, 2 and 3. The sampling time points were set to up to three days after treatment administration to ensure sufficient milk secretion for the measurements of all involution parameters. The volume of the samples was between 30 to 50 ml. The pH of the milk sample was measured in situ using a Cyberscan pH11 meter (Eutech Instruments, Singapore). The apparatus was calibrated each day by immersing the receptor in standard buffers of pH 7.0 and pH 4.01. Measurements were taken twice for each sample obtained from a mammary gland, with an interval of 30 seconds between measurements. pH measurement was repeated on-site by using the same sample vial. Before double-pH measurement, the milk sample vials were gently shaken three (3) times. After the pH measurement, the milk samples vials were kept in cool storage with a preservative product (Broad Spectrum Microtabs II—Bronopol and Metamycin—D&F Control System Inc., Two Technology Way, Norwood Mass. 02062 USA).
Somatic cell count was also determined in milk samples by Fossomatic 360 (Foss Electric, Hillerod, Denmark), and based on guidelines from the USA National Mastitis Council. Laboratory Handbook on Bovine Mastitis. 1999. Ed. National Mastitis Council, Verona, Wis. 53593 USA.
(§9) Endpoint Measures: pH, lactose and somatic cell counts (SCC) values from milk secretions at day 0 and during three (3) days post-treatment were taken. Results are described as the difference between the measures at each of the 3 days post treatment and the measured level at Day 0.
Additional parameter that may be used to establish the progression of the involution process is the presence of somatic cells within the milk. The increase in cell count within the milk is the result of high degree of apoptotic epithelial cell death associated with involution. […] The results presented in the table were calculated from log transformation of the raw data that were highly variable.

[2] = system: mammary gland of lactating dairy cows; assay: Field study of involution induction: change in lactose content of milk samples after a single intramammary infusion at dry-off; details: difference in lactose concentration vs Day 0, single intramammary infusion, peptides 4 mg in 10 ml, casein hydrolyzate 20 ml
Procedure: as §1, §2, §3, §4, §5, §6, §7, §8
Lactose values in the milk samples were determined at the Central Laboratory of Milk Quality, Caesaria Industrial Park, Israel, according to ISO 2266211DF 198:2007.
Data from six quarters were excluded from the analysis of lactose changes. Data from one of those quarters were omitted due to a missing initial value. For the other five quarters, lactose concentrations taken during the three follow-up days could not be analyzed due to a rapid mammary involution process, resulting in non-sufficient milk sample for lactose analysis.
as §9
One of the most significant outcomes of involution in terms of milk composition is a reduction in lactose content. Thus, lactose concentration was also measured in the milk samples taken before and after peptide or CNH administration as described for the pH measurements hereinabove. […]

[3] = system: mammary gland of lactating dairy cows; assay: Field study of involution induction: change of pH in milk samples after a single intramammary infusion at dry-off; details: difference in pH vs Day 0, single intramammary infusion, peptides 4 mg in 10 ml, casein hydrolyzate 20 ml
Procedure: as §1, §2, §3, §4, §5, §6, §7, §8, §9
Table 2 below summarizes the effect of the peptides examined and of casein hydrolyzate (CNH) on the pH of milk samples taken 1, 2 and 3 days after the one-dose treatment with each peptide or CNH. The results are presented as the difference in pH value between each of the days post treatment and Day 0 (before treatment).

Lys-Lys-Ser-Ser-Ser-NH2 [B]
Changes in Somatic Cell Counts in milk samples, Day 1, Mean ([1]; Day 1 post treatment): 0.109
Changes in Somatic Cell Counts in milk samples, Day 2, Mean ([1]; Day 2 post treatment): 0.664
Changes in Somatic Cell Counts in milk samples, Day 3, Mean ([1]; Day 3 post treatment): 1.191
Changes in Lactose content in milk samples, Day 1, Mean ([2]; Day 1 post treatment): −0.320
Changes in Lactose content in milk samples, Day 2, Mean ([2]; Day 2 post treatment): −0.969
Changes in Lactose content in milk samples, Day 3, Mean ([2]; Day 3 post treatment): −1.412
Changes of pH in milk samples, Day 1, Mean ([3]; Day 1 post treatment): −0.015
Changes of pH in milk samples, Day 2, Mean ([3]; Day 2 post treatment): −0.019
Changes of pH in milk samples, Day 3, Mean ([3]; Day 3 post treatment): 0.065
